Experiment [1] has as its target T1, maize enzyme cytokinin oxidase/dehydrogenase 1 (ZmCKX1) (Zea mays, UniProt Q9T0N8).
T1 construct: made in house; host or cells: Yarrowia lipolytica
Briefly: ZmCKX1 inhibition, PMS/MTT assay. The experiment is classed as biochemical. The procedure:
The IC50 (concentration of a substance that causes 50% inhibition of the enzyme activity) was measured by PMS/MTT assay [phenazine methosulphate/3-(4,5-dimethylthiazol-2-yl)-2,5-diphenyltetrazolium bromide]. The assay was performed in 96-well microtiter plates. Each well contained a reaction mixture with a final concentration of: 0.1 M KH2PO4, pH 7.4, 1 mM MTT, 0.2 mM PMS, tested substance in a concentration range of 0.1 nM - 1 µM and 10 µM N^6-isopentenyladenine (iP) as a substrate. To this reaction mixture 100 µL of medium containing the active enzyme ZmCKX1 was added. The enzyme was produced by the yeast Yarrowia lipolytica and isolated according to the protocol (Kopečný D. et al., 2005, […] 87:1011-1022). The plates were incubated for 30 min at 37 °C and the enzymatic reaction was stopped by the addition of 25 µL of 35% acetic acid. Then, the absorbance at 578 nm was measured on a spectrophotometer, and the absorbance of the sample without the substrate was substracted as a reference value. The IC50 value was determined from the concentration-dependent curves in GraphPad Prism software. The values shown in Table 1 are the average of at least two measurements each performed in three repetitions. […] This also applies to 3,5-DCl-Ph-U derivatives.
Background: Tetrazolium dyes change colour on reduction, which living cells bring about.

Experiment [2] deals with segments of wheat leaves (Triticum aestivum cv. Hereward). The experiment can be described thus: wheat leaf senescence assay performed in the dark (chlorophyll retention in detached leaf segments). Conditions: 10 micromolar, 96 hours in the dark at 25 °C, compared to yellow control (0,2% DMSO); for activation at 10 µM: Triticum aestivum, foliar, read-out: (% of chlorophyll above control). The experiment is classed as in vivo. On the procedure:
Seeds of winter wheat (Triticum aestivum cv. Hereward) was washed under running water for 4 hours and then sown in vermiculite saturated with Knop's nutrient solution. The trays with seeds were placed in an air-conditioned growth chamber with a 16/8 hour light regime (light intensity 50 µmol.m^-2.s^-1) and a temperature of 15 °C. After 7 days, the seedlings had developed the first […] and the second leaf began to grow. Top sections approximately 4 cm long were excised from the first leaves of 4 plants and their combined weight was adjusted to exactly 100 mg. The basal ends of these 4 leaf segments were placed in the wells of microtiter polystyrene plates containing solution (150 µL) of the tested derivative. The plates were placed in a plastic box with filter paper, which was saturated with water (to maintain the maximum humidity). After 96 hours of incubation in the dark at 25 °C, the leaf segments were removed and the chlorophyll was extracted to 5 mL of 80% ethanol by heating the leaf segments in ethanol at 80 °C for 40 min. The sample volume was then adjusted to 5 mL by adding 80% ethanol. The absorbance of the extracts was measured at 665 nm. Chlorophyll extracts from leaf segments incubated in deionized water (so-called yellow control) were also measured as controls. Freshly cut leaves (100 mg) were used as a green control, from which chlorophyll was extracted and measured in the same manner. The calculated values are the average of 5 replicates and the whole experiment was repeated two times. The tested compounds were dissolved in dimethyl sulfoxide (DMSO) to a concentration 10^-2 M. This stock solution was further diluted with water to a concentration of 10 micromolar. At this concentration, the substances were tested.

Experiment [3] concerns winter wheat (Triticum aestivum cv. Hereward). Briefly: salt-induced senescence of wheat plants. The experiment is classed as in vivo. The note with it: 100 nM aqueous solution, 75 mM NaCl seven days after planting, assessed 30 days after planting. On the procedure:
To investigate the effects of compounds 64 and 66 on salt-induced senescence, seeds of winter wheat (Triticum aestivum cv. Hereward) were washed under running water for 4 hours and then sown on perlite soaked with water (control) or 100 nM aqueous solution of compounds 64 or 66. Trays with seeds were placed in a growth chamber at 25 °C for 16/8 h light/dark at an intensity of 50 µmol.m^-2.s^-1. Seven days after planting, the plants were treated with 75 mM NaCl solution. The plants were allowed to grow and the plant damage was assessed 30 days after planting.
While untreated plants have the first leaves dead and the second leaves yellow, plants treated with CKX inhibitors have the first leaves yellowing and the second leaves green. […] This in vivo experiment is evidence that CKX inhibitors prolong the photosynthetic activity of wheat plants that have been exposed to environmental stress.

[4] abbreviates: 10 µM N6-isopentenyladenine (iP) as substrate, pH 7.4, 30 min at 37 °C, average of at least two measurements, read-out: IC50 (µM) ZmCKX1.

Read-outs that look alike come from different tables or passages of the source.

As usually defined, the IC50 is the concentration that gives 50% inhibition.

T1 sequence (Q9T0N8 19-534): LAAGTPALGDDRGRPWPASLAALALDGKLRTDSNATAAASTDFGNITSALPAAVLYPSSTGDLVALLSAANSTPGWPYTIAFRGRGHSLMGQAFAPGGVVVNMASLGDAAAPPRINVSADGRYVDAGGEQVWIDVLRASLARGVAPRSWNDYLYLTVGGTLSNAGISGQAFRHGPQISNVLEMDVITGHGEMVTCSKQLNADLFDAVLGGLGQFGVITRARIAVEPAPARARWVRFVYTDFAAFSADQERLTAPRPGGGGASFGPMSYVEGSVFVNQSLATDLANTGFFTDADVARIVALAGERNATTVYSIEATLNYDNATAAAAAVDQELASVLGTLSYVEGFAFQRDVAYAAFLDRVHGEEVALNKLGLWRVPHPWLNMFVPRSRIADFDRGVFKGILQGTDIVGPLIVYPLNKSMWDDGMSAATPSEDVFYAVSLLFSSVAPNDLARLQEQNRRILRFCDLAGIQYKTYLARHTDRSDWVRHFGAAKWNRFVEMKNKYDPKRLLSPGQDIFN

For `O=C(Nc1ccccc1)Nc1ccnc(Cl)c1` [CPPU, 1-(2-chloropyridin-4-yl)-3phenylurea, reference compound], in experiment [1], the midpoint of inhibition, the IC50, lay at 20.5 µM. Further, the activation at 10 µM in experiment [2] is 12%.
Take `O=C(Nc1ccnc(F)c1)Nc1cc(Cl)ccc1CO` [Compound 2, 1-(5-chloro-2-hydroxymethylphenyl)-3-(2-fluoropyridin-4-yl)urea]: the IC50 in experiment [1] (setting [4]) is 0.27 µM. Further, in experiment [2], the activation at 10 µM amounted to 23%.
The like results for `O=C(Nc1cc(Cl)nc(Cl)c1)Nc1cc(Cl)ccc1CO` [Compound 6, 1-(5-chloro-2-hydroxymethylphenyl)-3-(2,6-dichloropyridin-4-yl)urea] were, in that order, 0.1 µM and 29%.
In experiment [1], `COc1cc(NC(=O)Nc2cc(Br)ccc2CO)ccn1` [Compound 8, 1-(5-bromo-2-hydroxy-methylphenyl)-3-(2-methoxypyridin-4-yl)urea] had an IC50 of 0.13 µM. In experiment [2], the “(% of chlorophyll above control)” value turned out to be 25%.
Take `O=C(Nc1cc(F)nc(F)c1)Nc1cc(Cl)ccc1CCO` [Compound 11, 1-[5-chloro-2-(2-hydroxyethyl)phenyl]-3-(2,6-difluoropyridin-4-yl)urea]: the IC50 in experiment [1] (setting [4]) is 0.095 µM. In addition, the activation at 10 µM in experiment [2] worked out at 31%.
The like results for `COc1cc(NC(=O)Nc2cc(Cl)cc(Cl)c2CCO)ccn1` [Compound 16, 1-[3,5-dichloro-2-(2-hydroxyethyl)phenyl]-3-(2-methoxypyridin-4-yl)urea] were, in that order, 0.081 µM and 35%.
`COc1cc(Br)cc(NC(=O)Nc2ccccc2CO)c1` [Compound 22, 1-(3-bromo-5-methoxyphenyl)-3-(2-hydroxymethylphenyl)urea] displayed an IC50 in experiment [1] of 0.26 µM. The “(% of chlorophyll above control)” value in experiment [2] is 25%.
On to `COc1cc(NCCN)cc(NC(=O)Nc2cc(Cl)ccc2CO)c1` [Compound 25, 1-(5-chloro-2-hydroxymethylphenyl)-3-[3-(2-aminoethylamino)-5-methoxyphenyl]urea], for which the IC50 in experiment [1] (setting [4]) came to 0.024 µM. For the same compound, the activation at 10 µM in experiment [2] stood at 45%.
In experiment [1], `CSc1cccc(NC(=O)Nc2cc(Br)ccc2CO)c1` [Compound 27, 1-(5-bromo-2-hydroxy-methylphenyl)-3-(3-methylsulphanylphenyl)urea] returned an IC50 of 0.17 µM. For the same compound, the “(% of chlorophyll above control)” value in experiment [2] is given as 26%.
The like results for `O=C(Nc1cccc(OC(F)(F)F)c1)Nc1cc(Br)ccc1CO` [Compound 34, 1-(5-Bromo-2-hydroxymethylphenyl)-3-(3-trifluoromethoxyphenyl)urea] were, in that order, 0.1 µM and 32%.
Turning to `NCCNc1cc(NC(=O)Nc2cc(Cl)ccc2CO)cc(OC(F)(F)F)c1` [Compound 40, 1-(5-chloro-2-hydroxymethylphenyl)-3-[3-(2-aminoethylamino)-5-trifluoromethoxyphenyl]urea], in experiment [1] (setting [4]), the IC50 was found to be 0.01 µM. Moreover, the activation at 10 µM in experiment [2] was 39%.
Consider `O=C(Nc1cccc(SC(F)(F)F)c1)Nc1cc(F)ccc1CO` [Compound 42, 1-(5-fluoro-2-hydroxymethylphenyl)-3-(3-trifluoromethylsulphanylphenyl)urea], for which the IC50 in experiment [1] (setting [4]) turned out to be 0.08 µM. Besides, the activation at 10 µM in experiment [2] amounted to 25%.
In the case of `COc1cccc(NC(=O)Nc2ccccc2CCO)c1` [Compound 50, 1-[2-(2-hydroxyethyl)phenyl]-3-(3-methoxyphenyl)urea], the IC50 in experiment [1] (setting [4]) worked out at 0.27 µM.
On to `COc1cccc(NC(=O)Nc2cc(F)ccc2CCO)c1` [Compound 51, 1-[5-fluoro-2-(2-hydroxyethyl)phenyl]-3-(3-methoxyphenyl)urea], for which the IC50 in experiment [1] (setting [4]) was 0.08 µM. Moreover, in experiment [2], the activation at 10 µM turned out to be 30%.
For `COc1cccc(NC(=O)Nc2cc(Cl)ccc2CCO)c1` [Compound 52, 1-[5-chloro-2-(2-hydroxyethyl)phenyl]-3-(3-methoxyphenyl)urea], the IC50 in experiment [1] (setting [4]) is 0.066 µM. Also, the activation at 10 µM in experiment [2] came out at 37%.
With `COc1cccc(NC(=O)Nc2cc(Br)ccc2CCO)c1` [Compound 53], in experiment [1] (setting [4]), the IC50 worked out at 0.074 µM. For the same compound, the “(% of chlorophyll above control)” value in experiment [2] is given as 35%.
In the case of `COc1cc(F)cc(NC(=O)Nc2ccccc2CCO)c1` [Compound 54, 1-(3-fluoro-5-methoxyphenyl)-3-[2-(2-hydroxyethyl)phenyl]urea], the IC50 in experiment [1] (setting [4]) was found to be 0.28 µM.
With `COc1cc(Cl)cc(NC(=O)Nc2ccccc2CCO)c1` [Compound 55, 1-(3-Chloro-5-methoxyphenyl)-3-[2-(2-hydroxyethyl)phenyl]urea], in experiment [1] (setting [4]), the IC50 came to 0.18 µM.
With `COc1cc(Br)cc(NC(=O)Nc2ccccc2CCO)c1` [Compound 56, 1-(3-bromo-5-methoxyphenyl)-3-[2-(2-hydroxyethyl)phenyl]urea], the IC50 in experiment [1] stood at 0.14 µM.
As to `COc1cc(NCCO)cc(NC(=O)Nc2ccccc2CCO)c1` [Compound 57, 1-[3-(2-hydroxyethylamino)-5-methoxyphenyl]-3-[2-(2-hydroxyethyl)phenyl]urea], the 50% inhibitory concentration (IC50) in experiment [1] (setting [4]) was 0.16 µM.
Still for that read-out and setting: in the case of `COc1cc(NCCN)cc(NC(=O)Nc2ccccc2CCO)c1` [Compound 58] it was 0.13 µM.
As to `COc1cc(NCCN)cc(NC(=O)Nc2cc(Cl)ccc2CCO)c1` [Compound 59, 1-[5-chloro-2-(2-hydroxyethyl)phenyl]-3-[3-(2-aminoethylamino)-5-methoxyphenyl]urea], the IC50 in experiment [1] (setting [4]) came out at 0.008 µM. In addition, the activation at 10 µM in experiment [2] worked out at 48%.
The like results for `CSc1cccc(NC(=O)Nc2cc(Cl)ccc2CCO)c1` [Compound 60, 1-[5-chloro-2-(2-hydroxyethyl)phenyl]-3-(3-methylsulphanylphenyl)urea] were, in that order, 0.035 µM and 36%.
On the same counts, the results for `O=C(Nc1cccc(OC(F)(F)F)c1)Nc1cc(Cl)ccc1CCO` [Compound 62, 1-[5-chloro-2-(2-hydroxyethyl)phenyl]-3-(3-trifluoromethoxyphenyl)urea] are 0.021 µM and 39%.
Consider `O=C(Nc1cccc(OC(F)(F)F)c1)Nc1cc(F)ccc1CCO` [Compound 63, 1-[5-fluoro-2-(2-hydroxyethyl)phenyl]-3-(3-trifluoromethoxyphenyl)urea], for which the half-maximal inhibitory concentration (IC50) in experiment [1] (setting [4]) worked out at 0.036 µM.
`O=C(Nc1cc(Cl)cc(OC(F)(F)F)c1)Nc1ccccc1CCO` [Compound 64, 1-(3-Chloro-5-trifluoromethoxyphenyl)-3-[2-(2-hydroxyethyl)phenyl]urea] displayed an IC50 in experiment [1] of 0.058 µM. Moreover, in experiment [3], the “plant damage and senescence under salinity stress” value is “reduced the damage and delayed the senescence”; the “total chlorophyll content in whole plants: untreated salinity-stressed plants have less chlorophyll than treated stressed plants” value stood at 27%.
`O=C(Nc1cc(Br)cc(OC(F)(F)F)c1)Nc1ccccc1CCO` [Compound 65, 1-(3-Bromo-5-trifluoromethoxyphenyl)-3-[2-(2-hydroxyethyl)phenyl]urea] came in with an IC50 in experiment [1] of 0.035 µM. Besides, in experiment [2], the “(% of chlorophyll above control)” value was 30%.
Turning to `NCCNc1cc(NC(=O)Nc2ccccc2CCO)cc(OC(F)(F)F)c1` [Compound 67], in experiment [1] (setting [4]), the IC50 amounted to 0.022 µM.
Consider `O=C(Nc1cccc(SC(F)(F)F)c1)Nc1ccccc1CCO` [Compound 68, 1-[2-(2-Hydroxyethyl)phenyl]-3-(3-trifluoromethylsulphanylphenyl)urea], for which, in experiment [1] (setting [4]), the half-inhibitory concentration (IC50) was found to be 0.074 µM. Further, the activation at 10 µM in experiment [2] worked out at 34%.

The values are drawn from patent publication EP4121415B1, “INHIBITORS OF CYTOKININ OXIDASE DERIVED FROM 1-[2-(HYDROXYALKYL)PHENYL]-3-YLUREA, USE THEREOF AND PREPARATIONS CONTAINING THESE DERIVATIVES” (Univerzita Palackého v Olomouci, priority 2020, dated 2021).
